Results reported in patent US8404847B2, “Method for producing diamine derivative” (Daiichi Sankyo Company, Limited, priority 2008, dated 2013).

Columns and labels:
[1] = Solubility of compound A under crystallization conditions with varying amounts of TsOH.H2O (Test Example 1); format: physicochemical; settings: ethanol having a water content of 10%, 10° C.
Experimental: The ordinate depicts the solubility (mg/ml) of compound A, and the abscissa depicts the molar equivalent of p-toluenesulfonic acid monohydrate (vs. compound B).
The solubility of compound A was determined using varying amounts of TsOH.H2O under conditions for crystallizing compound A (ethanol having a water content of 10%, 10° C.). Specifically, compound A, compound B, and TsOH.H2O were added in the combinations shown below to 10 ml of ethanol having a water content of 10%. The resulting slurry was stirred at 10° C., and crystals were collected by filtration. Then, the content of the compound A contained in the filtered mother liquor was measured by HPLC (column: Shiseido CAPCELL PAK CN UG120 (4.6×250 mm), column temperature: 40° C., flow rate: 1.0 ml/min., mobile phase: acetonitrile:0.02 M phosphate buffer (pH 7.0)=30:70).

[2] = Stability of compound B under dissolution conditions with varying amounts of TsOH.H2O (Test Example 2); format: physicochemical; settings: ethanol having a water content of 30%, 70° C.
Experimental: FIG. 2 depicts time-dependent (hr; abscissa) change in the amount of compound B (%; ordinate) with the initial (0 hr) amount of compound B defined as 100%.
The stability of compound B was determined using varying amounts of TsOH.H2O under conditions for dissolving compound B in a solvent (ethanol having a water content of 30%, 70° C.). Specifically, 7 ml of ethanol having a water content of 30% and TsOH.H2O were added in combinations shown below to 1.0 g of compound B, followed by dissolution at 70° C. The content of the compound B was measured at constant time intervals by HPLC (column: Shiseido CAPCELL PAK CN UG120 (4.6×250 mm), column temperature: 40° C., flow rate: 1.0 ml/min., mobile phase: acetonitrile:0.02 M phosphate buffer (pH 7.0)=30:70).

Structure (SMILES)	solubility of compound A ([1]; TsOH.H2O larger than 1.00 molar equivalent with respect to compound B)	solubility of compound A ([1]; TsOH.H2O smaller than 1.00 molar equivalent with respect to compound B)	decomposition of compound B (decrease in compound B content) ([2]; TsOH.H2O at less than 1.0 molar equivalent (vs. compound B))	decomposition of compound B (decrease in compound B content) ([2]; TsOH.H2O at more than 1.0 molar equivalent (vs. compound B))
CN1CCc2nc(C(=O)N[C@@H]3C[C@@H](C(=O)N(C)C)CC[C@@H]3NC(=O)C(=O)Nc3ccc(Cl)cn3)sc2C1.Cc1ccc(S(=O)(=O)O)cc1.O [compound A, N^1-(5-chloropyridin-2-yl)-N^2-((1S,2R,4S)-4-[(dimethylamino)carbonyl]-2-{[(5-methyl-4,5,6,7-tetrahydrothiazolo[5,4-c]pyridin-2-yl)carbonyl]amino}cyclohexyl)ethanediamide p-toluenesulfonic acid monohydrate]	reduced	increased	–	–
CN1CCc2nc(C(=O)N[C@@H]3C[C@@H](C(=O)N(C)C)CC[C@@H]3NC(=O)C(=O)Nc3ccc(Cl)cn3)sc2C1 [compound B, N^1-(5-chloropyridin-2-yl)-N^2-((1S,2R,4S)-4-[(dimethylamino)carbonyl]-2-{[(5-methyl-4,5,6,7-tetrahydrothiazolo[5,4-c]pyridin-2-yl)carbonyl]amino}cyclohexyl)ethanediamide]	–	–	suppressed	promoted with the excess
